Biological target: T1, Gpa1 (yeast Gα) (Saccharomyces cerevisiae, UniProt P08539)
T1 sequence (P08539 2-472): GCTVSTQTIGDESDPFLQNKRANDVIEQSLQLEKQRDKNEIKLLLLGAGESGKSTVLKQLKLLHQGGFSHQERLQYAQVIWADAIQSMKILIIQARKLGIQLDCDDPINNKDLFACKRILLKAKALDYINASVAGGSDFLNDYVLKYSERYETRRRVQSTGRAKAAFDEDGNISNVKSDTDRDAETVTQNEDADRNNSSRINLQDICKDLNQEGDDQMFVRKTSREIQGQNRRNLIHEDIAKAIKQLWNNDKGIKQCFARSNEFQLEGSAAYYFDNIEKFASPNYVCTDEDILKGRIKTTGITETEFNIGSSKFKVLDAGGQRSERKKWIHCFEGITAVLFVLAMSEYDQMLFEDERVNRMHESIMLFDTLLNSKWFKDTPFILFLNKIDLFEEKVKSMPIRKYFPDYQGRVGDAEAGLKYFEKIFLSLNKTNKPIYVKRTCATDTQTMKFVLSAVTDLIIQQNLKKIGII
Assay: steady-state hydrolysis of gamma-32P GTP, charcoal assay
Format: biochemical
Conditions: turnover only; 5 µM GTP, 1 mM MgCl2, 37 °C, pH 6.0, 7.0, 8.0

Question: With `Nc1nc2c(ncn2[C@@H]2O[C@H](COP(=O)(O)OP(=O)(O)OP(=O)(O)O)[C@@H](O)[C@H]2O)c(=O)[nH]1` [GTP] as the molecule, how does the “steady-state hydrolysis of gamma-32P GTP, charcoal assay” value read?
Answer: Steady-state GTP hydrolysis by yeast Gpa1 and mammalian Gαi
